Data set [1] addresses T1, Chk1 (Homo sapiens, UniProt O14757).
T1 sequence (O14757 1-476): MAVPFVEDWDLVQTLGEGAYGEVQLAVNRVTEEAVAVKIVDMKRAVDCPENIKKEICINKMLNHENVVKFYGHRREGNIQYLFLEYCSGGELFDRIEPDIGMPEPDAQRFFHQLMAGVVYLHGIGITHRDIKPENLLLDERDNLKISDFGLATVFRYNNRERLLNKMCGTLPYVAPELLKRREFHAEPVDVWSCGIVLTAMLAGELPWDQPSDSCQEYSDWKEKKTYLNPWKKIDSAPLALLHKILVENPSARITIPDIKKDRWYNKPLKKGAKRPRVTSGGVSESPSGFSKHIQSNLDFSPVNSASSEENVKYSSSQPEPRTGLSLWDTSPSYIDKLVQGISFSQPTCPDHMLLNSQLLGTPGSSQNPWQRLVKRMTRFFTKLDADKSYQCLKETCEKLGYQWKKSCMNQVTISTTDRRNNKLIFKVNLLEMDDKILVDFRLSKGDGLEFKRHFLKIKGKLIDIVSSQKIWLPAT
As to the kind of experiment: Chk1 enzymatic assay. The format is biochemical. The settings on record: 10 μM [γ-33P]-ATP, 20 μM peptide substrate (SEQ ID NO:1); read-out: IC50, enzymatic potency against Chk1.

Data set [2] concerns the target T1, Chk1. As to the kind of experiment: Cellular Chk1 assay, serine 296 phospho-epitope immunoblot in HT-29 cells. The format is cell-based. The settings on record: HT-29 colon carcinoma cells, 18-hour assay, anti-Chk1 serine 296 phospho-epitope antibody. How it is done:
Cellular Chk1 was assayed using HT-29 colon carcinoma cells in an 18-hour assay by immunoblotting with a rabbit anti-Chk1 serine 296 phosphor-epitope antibody (obtained from Cell Signaling Technology Inc.).
A general note: Immunoblotting shows a protein as a band on a membrane.

Data set [3] has as its target Chk2 (Homo sapiens, UniProt O96017). As to the kind of experiment: Kinase panel selectivity, IC50 relative to Chk1. Type of data set: biochemical. How it is done: Compound 1 was screened against a panel of 120 kinases, including those represented in FIG. 3A, using a 1 μM ATP concentration. The IC50 values, measured at the ATP Km for each kinase, are represented relative to Chk1 in FIG. 3B. Cellular IC50 values were derived from signal transduction assays in relevant cell lines using phosphor-epitope-specific antibodies.

The subject of data set [4] is solid and hematological tumor-derived cell lines. As to the kind of experiment: Large cell line panel proliferation screens (CellTiter-Glo). Type of data set: cell-based. The settings on record: in vitro; lower end printed in nM, upper end in μM; read-out: IC50 values, single agent, large cell line panels. How it is done: A panel of 232 carcinoma derived cell lines was screened in a high-throughput proliferation assay using dilutions of Compound 1 or cisplatin. Cell lines were treated with serial half-log dilutions of Compound 1 or cisplatin using a starting concentration of 30 μM to achieve 9 dose levels and assayed 72 hours later for proliferation using a CellTiter-Glo® Assay (Promega). IC50 (EC50) values were calculated by fitting the dose-response data using a nonlinear regression model.
A panel of about 70 hematopoietic cell lines was screened for sensitivity to Compound 1 in a 72-hour proliferation assay (CrownBio Omnipanel). Cell lines that were screened included those representing anaplastic large cell lymphoma (ALCL), acute myeloid leukemia (AML), B-cell acute lymphoblastic leukemia (B-ALL), Burkitt lymphoma, chronic lymphocytic leukemia (CLL), chronic myelogenous leukemia (CML), mantle cell lymphoma (MCL), multiple myeloma (MM), acute promyelocytic leukemia (PML), and T-cell acute lymphoblastic leukemia (T-ALL).

The test system of data set [5] is SK-MES-1 tumor cells. As to the kind of experiment: SK-MES-1 NSCLC tumor xenograft model. The format is in vivo. The conditions noted are these: treated mice. How it is done: (§1) In order to assess the in vivo efficacy of Compound 1, two different NSCLC xenograft models were used. SK-MES-1 or NCI-H727 tumor cells were inoculated subcutaneously in the flanks of athymic nude mice. Once tumors reached a volume of about 200 mm^3, mice were randomized into study groups (n=10 per group). Mice were treated by oral gavage with Compound 1 at a dose of 12.5, 25, or 50 mg/kg once per day. A negative control group was also included, wherein the animals were administered vehicle only.

Data set [6] deals with NCI-H727 tumor cells. As to the kind of experiment: NCI-H727 NSCLC tumor xenograft model, single agent. Type of data set: in vivo. The conditions noted are these: treated mice. How it is done: as §1
The subject of data set [7] is Jeko-1 cells. As to the kind of experiment: Jeko-1 MCL xenograft model, single agent. The conditions noted are these: mouse, in vivo. How it is done:
(§2) The effects of Compound 1 were assessed in two different mantle cell lymphoma (MCL) xenograft models. Jeko-1 and or Maver-1 cells were inoculated subcutaneously in the flanks of CB17.SCID (for Jeko-1 cells) or athymic nude (for Maver-1 cells) mice. Once the tumors reached a volume of about 200 mm^3, the mice were randomized into study groups (n=10 per group). Mice were treated with Compound 1 by oral gavage, or with only vehicle as a negative control. In one treatment group, Compound 1 was administered once per day for 21 days. In the other treatment group, Compound 1 was administered twice per day for three cycles, wherein each cycle constituted treatment for three consecutive days, followed by no treatment for four consecutive days.

Data set [8] relates to Maver-1 cells. As to the kind of experiment: Maver-1 MCL xenograft model, single agent. The settings on record: mouse, in vivo. How it is done: as §2
The subject of data set [9] is Jeko-1 cells. As to the kind of experiment: Jeko-1 MCL tumor xenograft model, combination with Wee1 inhibitor. The format is in vivo. The conditions noted are these: Compound 1 7.5 mg/kg, AZD-1775 15 mg/kg, or both. How it is done:
A Jeko-1 mantle cell lymphoma (MCL) tumor xenograft model was used to study the combined effects of Chk1 inhibition with Compound 1 and a Wee1 inhibitor. Jeko-1 cells were inoculated subcutaneously into the flanks of CB17.SCID mice. Once tumors reached a volume of about 200 mm^3, mice were randomized into study groups (n=10 per group). […] A negative control group was included wherein the mice were treated with vehicle only.

Data set [10] concerns MV-411 cells. As to the kind of experiment: MV-411 AML tumor xenograft model. The format is in vivo. The settings on record: single agent. An excerpt:
An MV-411 tumor xenograft model was used to test the ability of Compound 1 to inhibit AML tumor growth in vivo. MV-411 cells were mixed with Matrigel in a 1:1 ratio and injected subcutaneously into the right flanks of female NOD.SCID mice. Once tumors reached a volume of about 100 to 200 mm^3, mice were randomized into study groups (n=10 per group) and dosed with Compound 1 by oral gavage.

Data set [11] is described as follows: GLP cardiovascular safety study. Type of data set: in vivo. The settings on record: QTc interval, left ventricular pressure, contractility end points. The source says: 7-day repeat dose tolerability studies have been completed in mice, rats, and cynomolgus monkeys, and there have been no findings in a cynomolgus monkey GLP cardiovascular safety study (including corrected QT (QTc) interval, left ventricular pressure (LVP), and contractility end points). Compound 1 is active as a single agent, but is also active in combination with chemotherapeutic agents and Wee1 inhibitors.

The nature of data set [12]: Efflux ratio. The format is in vitro ADME.
A short description of data set [13]: Metabolic stability. Type of data set: in vitro ADME.
For data set [14], the system named is CYP. As to the kind of experiment: CYP inhibition. The format is in vitro ADME.
The target of data set [15] is hERG (Homo sapiens, UniProt Q12809). As to the kind of experiment: hERG inhibition.

“Also recorded” adds a separate entry of the source.

Sequence of hERG (Q12809 whole entry): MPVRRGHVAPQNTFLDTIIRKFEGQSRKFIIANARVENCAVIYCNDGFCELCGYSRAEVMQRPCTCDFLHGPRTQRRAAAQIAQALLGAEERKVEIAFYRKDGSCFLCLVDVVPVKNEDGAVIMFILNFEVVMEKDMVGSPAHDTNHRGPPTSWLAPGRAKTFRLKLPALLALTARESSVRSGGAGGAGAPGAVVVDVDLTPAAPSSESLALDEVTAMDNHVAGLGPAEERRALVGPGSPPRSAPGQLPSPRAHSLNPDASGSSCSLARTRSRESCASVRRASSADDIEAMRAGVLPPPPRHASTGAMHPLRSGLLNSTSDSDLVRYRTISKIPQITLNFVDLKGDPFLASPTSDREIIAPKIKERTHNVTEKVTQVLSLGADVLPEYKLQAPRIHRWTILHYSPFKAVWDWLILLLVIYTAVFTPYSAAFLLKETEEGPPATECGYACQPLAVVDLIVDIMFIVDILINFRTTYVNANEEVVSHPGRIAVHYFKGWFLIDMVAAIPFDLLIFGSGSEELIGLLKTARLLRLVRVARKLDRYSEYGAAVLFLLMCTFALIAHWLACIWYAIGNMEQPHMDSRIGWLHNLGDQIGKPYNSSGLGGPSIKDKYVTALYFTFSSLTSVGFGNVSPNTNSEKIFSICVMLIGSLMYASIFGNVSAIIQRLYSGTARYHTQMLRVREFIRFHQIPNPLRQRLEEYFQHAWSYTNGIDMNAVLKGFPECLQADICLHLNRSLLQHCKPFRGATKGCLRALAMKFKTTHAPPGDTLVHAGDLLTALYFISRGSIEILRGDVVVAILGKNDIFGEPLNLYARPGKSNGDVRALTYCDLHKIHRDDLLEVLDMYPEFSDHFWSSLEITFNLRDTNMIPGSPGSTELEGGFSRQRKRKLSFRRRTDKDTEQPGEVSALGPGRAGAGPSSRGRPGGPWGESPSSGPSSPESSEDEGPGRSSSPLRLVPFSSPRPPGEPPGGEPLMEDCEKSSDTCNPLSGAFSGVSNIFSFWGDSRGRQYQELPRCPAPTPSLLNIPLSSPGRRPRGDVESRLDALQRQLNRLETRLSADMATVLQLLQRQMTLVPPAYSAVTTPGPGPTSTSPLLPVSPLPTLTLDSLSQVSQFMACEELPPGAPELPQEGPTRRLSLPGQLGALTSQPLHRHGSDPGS
Sequence of Chk2 (O96017 whole entry, species assumed): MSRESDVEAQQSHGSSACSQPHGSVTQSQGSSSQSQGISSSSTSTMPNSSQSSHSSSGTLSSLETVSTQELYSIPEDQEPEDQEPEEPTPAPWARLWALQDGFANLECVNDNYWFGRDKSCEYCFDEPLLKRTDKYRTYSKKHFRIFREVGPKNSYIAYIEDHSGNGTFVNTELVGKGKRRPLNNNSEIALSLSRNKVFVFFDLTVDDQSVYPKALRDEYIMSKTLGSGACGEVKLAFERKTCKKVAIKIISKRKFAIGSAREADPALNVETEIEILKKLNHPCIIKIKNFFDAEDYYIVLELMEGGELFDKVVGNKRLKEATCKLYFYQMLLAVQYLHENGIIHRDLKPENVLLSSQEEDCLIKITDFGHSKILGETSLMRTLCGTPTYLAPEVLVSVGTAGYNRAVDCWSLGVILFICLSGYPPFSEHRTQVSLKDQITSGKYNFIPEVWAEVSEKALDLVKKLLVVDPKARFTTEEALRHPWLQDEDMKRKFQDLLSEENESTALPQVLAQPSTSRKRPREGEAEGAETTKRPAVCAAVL

As to `COc1cc(C2(F)CCN(C)CC2)ccc1-c1cc(Nc2cnc(C#N)cn2)n[nH]1` [Compound 1, 5-((5-(4-(4-fluoro-1-methylpiperidin-4-yl)-2-methoxyphenyl)-1H-pyrazol-3-yl)amino)pyrazine-2-carbonitrile], the half-maximal inhibitory concentration (IC50) (commonly the midpoint of a concentration-inhibition curve) is 0.124 nM in data set [1], 0.511 nM in [2] and ≥ 30 nM in data set [4]. In addition, the “selectivity for Chk1 over Chk2” value in data set [3] is listed as “more than 1,000 ×”. For the same compound, the “effect on body weight” value in data set [5] and in [6] was “minimal effects on body weight” throughout. In addition, the “tolerability (body weight)” value in [7], in [8], in [9] and in [10] was “well-tolerated” in each case. Moreover, the cardiovascular safety findings entry in data set [11] is “low risk of cardiotoxicity; also recorded: no findings”. For the same compound, the efflux ratio result in data set [12] is given as “low”. The metabolic stability entry in data set [13] is “good”. Besides, the CYP inhibition result in data set [14] was “no CYP inhibition liabilities”. Besides, the hERG inhibition index entry in [15] is listed as “excellent”.
Turning to `C=CCn1c(=O)c2cnc(Nc3ccc(N4CCN(C)CC4)cc3)nc2n1-c1cccc(C(C)(C)O)n1` [AZD-1775, 2-allyl-1-(6-(2-hydroxypropan-2-yl)pyridin-2-yl)-6-((4-(4-methylpiperazin-1-yl)phenyl)amino)-1H-pyrazolo[3,4-d]pyrimidin-3(2H)-one, reference compound], in [9] (oral gavage once per day, three cycles of 3 days on/4 days off), the tumor growth entry was “inhibited by both agents alone”.

The values above are taken from patent US20200108074A1, “COMBINATIONS OF CHK1- AND WEE1- INHIBITORS” (Seattle Genetics, Inc., priority 2017, published 2020).
